Measured values as given in ChEMBL document CHEMBL1201862, “PubChem BioAssay data set” (2004).
Calls of active or inactive are those of the source.

Experiments:
Aminopeptidase N = target: T1, Aminopeptidase N (Plasmodium falciparum FcB1/Columbia, UniProt O96935); experiment: P. falciparum M1AAP inhibitors, biochemical, fluorogenic H-Leu-NHMec substrate, 1536-well (AID 1445); parameters: species or system Plasmodium falciparum 3D7, 3D7
T1 sequence (O96935 whole entry): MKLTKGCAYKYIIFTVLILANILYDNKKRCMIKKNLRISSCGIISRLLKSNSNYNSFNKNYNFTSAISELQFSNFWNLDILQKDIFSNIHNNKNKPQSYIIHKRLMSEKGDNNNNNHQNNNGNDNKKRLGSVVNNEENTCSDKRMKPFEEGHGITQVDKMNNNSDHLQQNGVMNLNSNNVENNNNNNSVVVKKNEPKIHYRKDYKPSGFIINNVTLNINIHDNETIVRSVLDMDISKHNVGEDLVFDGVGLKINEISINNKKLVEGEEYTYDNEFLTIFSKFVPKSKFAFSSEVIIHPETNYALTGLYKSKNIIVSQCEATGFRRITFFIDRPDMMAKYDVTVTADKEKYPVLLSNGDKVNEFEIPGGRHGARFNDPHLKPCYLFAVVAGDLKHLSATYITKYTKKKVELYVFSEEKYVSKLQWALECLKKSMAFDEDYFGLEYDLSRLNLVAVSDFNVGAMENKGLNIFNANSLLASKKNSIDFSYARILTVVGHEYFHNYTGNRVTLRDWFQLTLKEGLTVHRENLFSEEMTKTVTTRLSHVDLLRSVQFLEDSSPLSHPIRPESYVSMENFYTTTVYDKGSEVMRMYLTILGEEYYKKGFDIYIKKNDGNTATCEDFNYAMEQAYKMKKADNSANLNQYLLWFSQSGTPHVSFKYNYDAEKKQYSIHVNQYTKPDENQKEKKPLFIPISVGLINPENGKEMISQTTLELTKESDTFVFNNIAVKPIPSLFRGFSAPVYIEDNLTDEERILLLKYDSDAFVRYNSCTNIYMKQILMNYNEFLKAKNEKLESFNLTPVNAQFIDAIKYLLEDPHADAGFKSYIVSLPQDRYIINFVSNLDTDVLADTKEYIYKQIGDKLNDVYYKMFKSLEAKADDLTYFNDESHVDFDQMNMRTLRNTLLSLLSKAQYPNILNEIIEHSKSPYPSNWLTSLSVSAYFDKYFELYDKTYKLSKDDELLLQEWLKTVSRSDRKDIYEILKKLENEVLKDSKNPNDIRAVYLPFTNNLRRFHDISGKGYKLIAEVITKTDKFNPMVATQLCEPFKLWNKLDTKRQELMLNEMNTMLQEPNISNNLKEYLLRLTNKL

Cytochrome P450 3A4 [1] = target: T2, Cytochrome P450 3A4 (Homo sapiens, UniProt P08684); conditions: Potency
T2 sequence (P08684 whole entry): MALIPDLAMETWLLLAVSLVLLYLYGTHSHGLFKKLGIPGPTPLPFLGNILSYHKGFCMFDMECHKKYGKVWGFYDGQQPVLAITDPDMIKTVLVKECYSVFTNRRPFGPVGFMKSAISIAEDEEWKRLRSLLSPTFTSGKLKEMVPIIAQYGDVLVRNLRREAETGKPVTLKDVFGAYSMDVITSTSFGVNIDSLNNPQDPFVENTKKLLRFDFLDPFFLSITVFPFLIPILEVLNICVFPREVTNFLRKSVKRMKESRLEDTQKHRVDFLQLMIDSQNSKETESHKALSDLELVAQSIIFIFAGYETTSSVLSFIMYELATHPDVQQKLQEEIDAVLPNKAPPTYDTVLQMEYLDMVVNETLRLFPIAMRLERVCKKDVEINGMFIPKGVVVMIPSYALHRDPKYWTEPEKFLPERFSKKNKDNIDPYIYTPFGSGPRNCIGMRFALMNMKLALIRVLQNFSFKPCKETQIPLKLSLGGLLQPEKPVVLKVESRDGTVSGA

[2] = target: T3, High affinity choline transporter 1 (Homo sapiens, UniProt Q9GZV3); experiment: CHT inhibitors, dose response, cell-based, 5-point CRC, membrane potential dye (AID 504840); assay type: functional
T3 sequence (Q9GZV3 whole entry): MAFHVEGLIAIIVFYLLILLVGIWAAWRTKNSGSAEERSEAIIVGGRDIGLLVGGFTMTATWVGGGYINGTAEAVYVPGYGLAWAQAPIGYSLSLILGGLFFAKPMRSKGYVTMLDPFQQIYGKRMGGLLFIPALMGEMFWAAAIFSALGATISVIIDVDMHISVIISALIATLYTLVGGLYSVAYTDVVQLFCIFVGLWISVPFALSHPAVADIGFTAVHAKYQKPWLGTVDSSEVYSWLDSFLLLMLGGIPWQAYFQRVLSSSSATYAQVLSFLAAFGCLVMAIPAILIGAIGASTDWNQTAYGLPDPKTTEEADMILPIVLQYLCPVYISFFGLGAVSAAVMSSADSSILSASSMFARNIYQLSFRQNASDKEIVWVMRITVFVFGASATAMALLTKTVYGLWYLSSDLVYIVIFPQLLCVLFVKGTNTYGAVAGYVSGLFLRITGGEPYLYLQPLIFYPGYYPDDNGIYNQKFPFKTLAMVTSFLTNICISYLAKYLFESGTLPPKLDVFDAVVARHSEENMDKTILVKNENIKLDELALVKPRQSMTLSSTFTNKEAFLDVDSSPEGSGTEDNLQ

Genome polyprotein = Genome polyprotein (dengue virus type 2, UniProt P29990); experiment: Dengue-2 NS5 methyltransferase inhibitors, primary screen, biochemical, confirmation dose response (AID 588689); assay type: functional
Sequence of Genome polyprotein (P29990 2492-3391 limits assumed): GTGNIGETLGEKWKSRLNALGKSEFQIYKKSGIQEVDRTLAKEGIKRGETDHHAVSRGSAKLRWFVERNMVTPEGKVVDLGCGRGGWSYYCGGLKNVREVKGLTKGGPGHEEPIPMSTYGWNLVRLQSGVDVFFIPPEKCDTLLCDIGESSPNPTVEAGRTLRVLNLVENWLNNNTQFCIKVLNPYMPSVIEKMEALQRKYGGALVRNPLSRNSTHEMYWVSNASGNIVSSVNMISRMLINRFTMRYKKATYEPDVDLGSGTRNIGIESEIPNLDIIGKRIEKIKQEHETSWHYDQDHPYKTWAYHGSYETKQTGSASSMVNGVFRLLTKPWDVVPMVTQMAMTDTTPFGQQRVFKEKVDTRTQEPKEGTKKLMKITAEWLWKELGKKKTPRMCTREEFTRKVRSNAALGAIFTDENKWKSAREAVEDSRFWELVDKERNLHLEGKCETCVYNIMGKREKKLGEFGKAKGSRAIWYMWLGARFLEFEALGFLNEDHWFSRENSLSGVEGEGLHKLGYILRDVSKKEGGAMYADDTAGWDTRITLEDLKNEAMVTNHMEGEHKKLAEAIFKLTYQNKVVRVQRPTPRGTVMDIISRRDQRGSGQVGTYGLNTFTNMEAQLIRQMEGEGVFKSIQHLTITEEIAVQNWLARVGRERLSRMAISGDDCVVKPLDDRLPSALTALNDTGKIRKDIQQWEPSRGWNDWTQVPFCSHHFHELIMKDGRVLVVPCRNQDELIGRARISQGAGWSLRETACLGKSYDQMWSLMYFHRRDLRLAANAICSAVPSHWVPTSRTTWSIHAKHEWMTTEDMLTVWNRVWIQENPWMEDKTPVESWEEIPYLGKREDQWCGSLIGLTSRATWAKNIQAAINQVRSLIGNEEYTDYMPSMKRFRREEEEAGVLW

[3] = THP-1 cell cytotoxicity, dose response, cytotoxicity control for non-replicating M. tuberculosis project (AID 489025); assay type: functional
[4] = cytotoxicity in HEK-293T cells, dose response, cytotoxicity control for BCR NF-kB inhibitor project, luminescence, B-cell screen hits (AID 489021); assay type: functional, cell-based;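 note: HEK-293T cells carrying an NF-kB luciferase reporter; cells exposed to compound for about 14 hours before viability readout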
cells = assay type: functional
[5] = target: Glucose-6-phosphate 1-dehydrogenase (Homo sapiens, UniProt P11413); experiment: human G6PD enzyme inhibitors, dose response, selectivity assay for P. falciparum G6PD inhibitor project, biochemical, fluorescence (AID 504792); assay type: functional
Sequence of Glucose-6-phosphate 1-dehydrogenase (P11413 whole entry, the tested form may be a part): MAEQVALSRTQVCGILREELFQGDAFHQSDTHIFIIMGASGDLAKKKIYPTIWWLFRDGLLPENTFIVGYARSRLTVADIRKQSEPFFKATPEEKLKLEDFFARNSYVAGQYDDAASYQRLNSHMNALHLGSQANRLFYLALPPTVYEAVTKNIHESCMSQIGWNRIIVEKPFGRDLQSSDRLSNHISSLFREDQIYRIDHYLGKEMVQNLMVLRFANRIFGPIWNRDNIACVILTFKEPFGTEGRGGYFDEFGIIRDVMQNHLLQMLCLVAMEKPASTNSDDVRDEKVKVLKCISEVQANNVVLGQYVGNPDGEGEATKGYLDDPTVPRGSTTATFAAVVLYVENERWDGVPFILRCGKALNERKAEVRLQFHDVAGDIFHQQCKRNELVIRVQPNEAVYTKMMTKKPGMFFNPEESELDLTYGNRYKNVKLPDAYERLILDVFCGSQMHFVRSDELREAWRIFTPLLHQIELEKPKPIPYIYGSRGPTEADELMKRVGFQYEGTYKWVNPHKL

[6] = target: T4, RNA-binding protein pos-1 (Caenorhabditis elegans, UniProt G5EF15); experiment: inhibitors of POS-1/mex-3 RNA binding, dose response, biochemical, fluorescence polarization (AID 1964);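 note: purified POS-1 fused to maltose binding protein made in E. coli; potency of compounds blocking POS-1 binding to fluorescent RNA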
T4 sequence (G5EF15 whole entry): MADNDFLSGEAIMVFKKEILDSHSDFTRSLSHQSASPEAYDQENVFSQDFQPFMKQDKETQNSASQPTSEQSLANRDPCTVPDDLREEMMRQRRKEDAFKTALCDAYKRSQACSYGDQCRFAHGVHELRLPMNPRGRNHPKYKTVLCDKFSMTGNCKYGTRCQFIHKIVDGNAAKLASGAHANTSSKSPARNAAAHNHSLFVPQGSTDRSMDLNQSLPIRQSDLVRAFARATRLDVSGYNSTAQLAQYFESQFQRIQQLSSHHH

[7] = target: T5, Zinc finger protein mex-5 (Caenorhabditis elegans, UniProt Q9XUB2); experiment: MEX-5/TCR-2 RNA interaction inhibitors, dose response, biochemical, C. elegans, fluorescence polarization (AID 1960)
T5 sequence (Q9XUB2 whole entry): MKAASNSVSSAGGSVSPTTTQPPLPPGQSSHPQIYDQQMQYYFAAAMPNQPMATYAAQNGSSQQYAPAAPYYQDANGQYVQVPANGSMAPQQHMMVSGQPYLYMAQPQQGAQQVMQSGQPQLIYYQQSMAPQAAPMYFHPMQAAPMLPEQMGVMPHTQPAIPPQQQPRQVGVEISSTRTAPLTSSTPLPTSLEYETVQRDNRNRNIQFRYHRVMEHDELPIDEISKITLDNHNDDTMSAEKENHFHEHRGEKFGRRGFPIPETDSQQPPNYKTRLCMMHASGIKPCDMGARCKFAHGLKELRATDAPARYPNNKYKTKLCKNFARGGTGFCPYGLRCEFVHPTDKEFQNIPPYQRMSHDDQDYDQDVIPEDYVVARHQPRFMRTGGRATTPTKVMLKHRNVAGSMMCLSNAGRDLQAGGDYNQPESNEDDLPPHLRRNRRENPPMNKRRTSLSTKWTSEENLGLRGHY

Cytochrome P450 3A4 [8] = target: T2, Cytochrome P450 3A4
Large T antigen = Large T antigen (Simian virus 40, UniProt P03070); assay type: functional, Betapolyomavirus macacae;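 note: Confirmatory-stage PubChem screen for compounds that inhibit SV40 T antigen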
Sequence of Large T antigen (P03070 whole entry): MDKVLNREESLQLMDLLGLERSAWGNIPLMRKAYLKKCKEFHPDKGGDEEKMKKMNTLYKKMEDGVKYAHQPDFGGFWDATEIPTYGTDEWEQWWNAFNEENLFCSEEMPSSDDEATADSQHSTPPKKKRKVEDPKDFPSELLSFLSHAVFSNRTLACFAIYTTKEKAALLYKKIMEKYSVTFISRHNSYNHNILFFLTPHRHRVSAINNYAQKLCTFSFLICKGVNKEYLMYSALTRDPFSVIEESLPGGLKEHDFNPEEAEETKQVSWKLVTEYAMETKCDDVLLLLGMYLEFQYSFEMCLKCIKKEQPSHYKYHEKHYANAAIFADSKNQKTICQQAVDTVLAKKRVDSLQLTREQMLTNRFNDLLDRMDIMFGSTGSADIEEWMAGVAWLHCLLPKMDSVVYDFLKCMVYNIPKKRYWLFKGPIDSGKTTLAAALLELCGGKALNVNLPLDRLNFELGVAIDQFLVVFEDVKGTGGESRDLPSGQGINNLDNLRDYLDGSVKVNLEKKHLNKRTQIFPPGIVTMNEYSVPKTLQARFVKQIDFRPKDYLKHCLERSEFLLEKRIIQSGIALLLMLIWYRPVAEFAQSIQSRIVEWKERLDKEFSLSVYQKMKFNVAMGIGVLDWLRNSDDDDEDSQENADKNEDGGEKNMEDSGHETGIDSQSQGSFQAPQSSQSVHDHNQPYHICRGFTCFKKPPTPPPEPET

[9] = target: T6, Ubiquitin-conjugating enzyme E2 N (Homo sapiens, UniProt P61088); assay type: functional;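 note: Dose-response confirmation in a TR-FRET assay detecting UBC13-driven polyubiquitin chain formation, inhibition measured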
T6 sequence (P61088 whole entry): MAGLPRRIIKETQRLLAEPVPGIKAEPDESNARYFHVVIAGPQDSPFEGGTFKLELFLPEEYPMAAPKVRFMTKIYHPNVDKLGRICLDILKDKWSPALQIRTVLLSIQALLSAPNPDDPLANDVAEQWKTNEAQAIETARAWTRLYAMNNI

Streptococcus = experiment: Group A Streptococcus viability loss, dose response, counter-screen for streptokinase expression inhibitor project, luminescence, BacTiterGlo (AID 1915); assay type: functional, organism-based;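 note: potency for reduction of bacterial viability or growth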
Streptokinase A = target: T7, Streptokinase A (Streptococcus pyogenes serotype M1, UniProt P10520); experiment: S. pyogenes streptokinase expression inhibitors, potency, dose response, plasminogen activation absorbance, OD405 (AID 1914); assay type: functional, Streptococcus pyogenes M1 GAS;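 note: secreted streptokinase activity via plasminogen activation per viability signal from cell pellet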
T7 sequence (P10520 whole entry): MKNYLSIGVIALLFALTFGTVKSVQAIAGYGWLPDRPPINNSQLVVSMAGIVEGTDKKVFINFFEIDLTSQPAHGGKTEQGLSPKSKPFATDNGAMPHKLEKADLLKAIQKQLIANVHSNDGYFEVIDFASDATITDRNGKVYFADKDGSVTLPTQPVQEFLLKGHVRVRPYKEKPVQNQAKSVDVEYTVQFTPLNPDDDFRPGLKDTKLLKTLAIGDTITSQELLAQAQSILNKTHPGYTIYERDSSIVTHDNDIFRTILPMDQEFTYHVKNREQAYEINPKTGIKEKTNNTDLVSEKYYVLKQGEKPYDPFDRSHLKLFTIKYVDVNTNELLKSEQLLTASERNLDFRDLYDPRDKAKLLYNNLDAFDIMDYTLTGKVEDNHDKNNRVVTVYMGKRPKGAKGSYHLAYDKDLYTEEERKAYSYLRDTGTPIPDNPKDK

[10] = system: Streptococcus sp. 'group A'; experiment: growth inhibition of control SK(-) GAS strain, dose response, counter-screen for streptokinase expression inhibitor project, luminescence, kanamycin, BacTiterGlo, confirmation (AID 1900); assay type: functional, organism-based

O=C(COc1ccccc1/C=C\c1nc(O)c([N+](=O)[O-])c(O)n1)Nc1ccccc1
IC50 (Aminopeptidase N): 49 µM (active)

CN1CCc2cc3c(cc2C(=O)Cc2ccc4c(c2C1)OCO4)OCO3
AC50 (Cytochrome P450 3A4 [1]): 25.1 µM (inconclusive)

Cc1cnc(C)c(N2CCN(Cc3nc(-c4cccc(F)c4F)oc3C)CC2)n1
IC50 [2]: 15.1 µM (active)

Cc1ncc(CN2CC=C(c3ccccc3)CC2)c(N)n1
AC50 (Cytochrome P450 3A4 [1]): 25.1 µM (inconclusive)

CCn1c(SCc2nc(-c3ccc(OC)c(OC)c3)no2)nnc1-c1cccs1
IC50 [2]: 11.2 µM (active)

C=CC(=O)OCCCCCCOC(=O)C=C
AC50 (Cytochrome P450 3A4 [1]): 25.1 µM (inconclusive)

COc1ccc(/C=C2/SC(=S)N(CC(=O)O)C2=O)cc1OCc1ccc(Cl)cc1
IC50 (Genome polyprotein): > 100 µM (active)

Cc1ccccc1C1C2=C(O)c3ccccc3C2=Nc2nn(-c3ccccc3)c(O)c21 (configuration not stated)
IC50 (Aminopeptidase N): 40.4 µM (active)

CC(/C=C(\O)c1ccc(Br)cc1)=N/NC(=O)c1ccccc1
CC50 [3]: 22.2 µM (active)

O=C(N/N=C/c1cccnc1)c1cc(-c2ccccc2OCc2ccccc2)[nH]n1
IC50 [4]: 53.1 µM (inactive)
IC50 (Aminopeptidase N): 31.2 µM (active)

O=C1/C(=C/C=C/c2ccccc2)Oc2c1ccc(O)c2CN1CCN(CCO)CC1
CC50 [3]: > 40 µM (active)
IC50 (cells): 23.3 µM (active)

O=C1NN(c2ccccc2)C(=O)/C1=C\c1ccccc1OCC(=O)N1CCOCC1
IC50 (Genome polyprotein): > 100 µM (active)

O=C(O)c1cccc(N2C(=O)C=CC2=O)c1
IC50 (Genome polyprotein): 76.9 µM (active)
IC50 [5]: > 80 µM (inactive)

O=c1cc(-c2ccc(O)c(O)c2)oc2cc(O)cc(O)c12 [LUTEOLIN]
EC50 [6]: 60.4 µM (active)
IC50 (Aminopeptidase N): 22.9 µM (active)
EC50 [7]: 31 µM (active)
AC50 (Cytochrome P450 3A4 [8]): 5.01 µM (inconclusive)
IC50 (Large T antigen): 11.9 µM (active)

Cc1nc(C)c(/C(O)=C/c2nc3ccccc3oc2=O)s1
CC50 [3]: > 40 µM (active)
IC50 (cells): 3.09 µM (active)

COC(=O)COc1ccc(-c2ccc(F)cc2)cc1C=O
IC50 (cells): 3.51 µM (active)

Cc1cc(C)cc(N(C(=O)c2snc(C(N)=O)c2N)C(C(=O)NCC2CCCO2)c2ccc(C)o2)c1 (configuration not stated)
IC50 [9]: > 20 µM (inactive)

NS(=O)(=O)c1ccc(N2N=C(c3ccccc3)CC2c2ccc(F)cc2)cc1 (configuration not stated)
EC50 (Streptococcus): 18.7 µM (active)
IC50 (Aminopeptidase N): 62 µM (active)
EC50 (Streptokinase A): 55.2 µM (active)
EC50 [10]: 6.96 µM (active)

CC(C)OCCCNc1nc2c(-c3ccccc3)nnn2c2ccccc12
IC50 [9]: > 20 µM (inactive)

CCCc1nc2sc3c(c2c(=O)n1NC(=O)c1ccco1)CC(C)(C)OC3
IC50 (Aminopeptidase N): 36.1 µM (active)

CC(NC(=O)c1ccc(F)cc1)c1ccc2c(c1)CCCC2 (configuration not stated)
IC50 [2]: 20.9 µM (active)
